These results are taken from patent US9067897B2, “2,4-Diaminoquinazolines for spinal muscular atrophy” (Families of Spinal Muscular Atrophy, priority 2004, dated 2015).

The first assay deals with SMN2 promoter. As to the kind of experiment: SMN2 promoter assay (β-lactamase reporter) in NSC-34 cells. Type of assay: cell-based, mouse. The settings on record: Mus musculus, SMN2 promoter driving β-lactamase, 12 point dose curve, average of 3-6 dose curve experiments.
On to `CCC(Oc1cccc2nc(N)nc(N)c12)C1CCCCC1` (stereo not drawn) [Example 129, 5-(1-Cyclohexylpropoxy)-quinazoline-2,4-diamine], for which the 50% effective concentration (EC50) was less than 1 µM.

In the case of `Nc1nc(N)c2c(OCc3cc(Cl)cc(Cl)c3)cccc2n1` [Example 106, 5-(3,5-Dichlorobenzyloxy)quinazoline-2,4-diamine], the 50% effective concentration (EC50) is less than 1 µM.

As for `Nc1nc(N)c2c(OCc3ccccc3)cccc2n1` [Example 35, 5-Benzyloxyquinazoline-2,4-diamine], the EC50 is less than 1 µM.

`Nc1nc(N)c2c(OCC3CCN(C(=O)c4ccccc4Cl)CC3)cccc2n1` [Example 133, (2-Chlorophenyl)-[4-(2,4-diamino-quinazolin-5-yloxymethyl)-piperidin-1-yl]-methanone] had an EC50 of less than 1 µM.

Take `Nc1nc(N)c2c(S(=O)(=O)c3ccc(Cl)cc3)cccc2n1` [Example 31, 5-(4-Chlorobenzenesulfonyl)quinazoline-2,4-diamine]: the EC50 fell in the range of 1 to 5 µM.

For the compound `Nc1nc(N)c2c(OCC(O)c3ccccc3)cccc2n1` (stereo not drawn) [Example 157, 2-(2,4-Diaminoquinazolin-5-yloxy)-1-phenyl-ethanol], the EC50 was less than 1 µM.

`Nc1nc(N)c2c(OCc3ccccc3I)cccc2n1` [Example 75, 5-(2-Iodo-benzyloxy)-quinazoline-2,4-diamine] yielded an EC50 of less than 1 µM.

On to `Nc1nc(N)c2c(O[C@H]3CCc4ccccc43)cccc2n1` [Example 41, 5-((S)-Indan-1-yloxy)quinazoline-2,4-diamine], for which the EC50 lay in the range of 5 to 10 µM.

`COc1cc(OC)cc(C(C)Oc2cccc3nc(N)nc(N)c23)c1` (stereo not drawn) [Example 67, 5-[1-(3,5-Dimethoxyphenyl)-ethoxy]-quinazoline-2,4-diamine] yielded an EC50 of less than 1 µM.

With `Nc1nc(N)c2c(N3CCCCC3)cccc2n1` [Example 59, 5-(Piperidin-1-yl)quinazoline-2,4-diamine], the EC50 was less than 1 µM.

The subject of a further assay is SMN.
Assay: not given
The settings on record: cited from earlier work.
Turning to `CCCC(=O)[O-].[Na+]` [sodium butyrate], the SMN expression entry is “increase SMN expession”.

With phenylbuytreate, the SMN expression result is “increase SMN expession”.
